Molecules are shown by their SMILES. Values joined by “and” are separate entries in the source; they are usually repeats but may differ in a detail not shown here. Equal entries are not always repeated.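 Step 1: Grow cells in 96-well plates. Step 2: Expose to compound for 48 hours at 5 concentrations. Step 3: Interpolate endpoints linearly; if unreached, use highest concentration. Here, GI50 denotes the concentration required for 50% inhibition of growth. TGI marks complete inhibition of growth.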 A value given as a limit tells only on which side of the number the result lay.

What all share (assay): growth of human tumour cells (NCI), 48 h
The subject of test [1] is 786-0 renal.
The subject of test [2] is CAKI-1 renal.
The test system of test [3] is HOP-62 NSCLC.
The subject of test [4] is NCI/ADR-RES ovarian.
Test [5] has as its system OVCAR-5 ovarian.
In test [6] the test system is RPMI-8226 leukemia.
Test [7] relates to SF-539 CNS.
Test [8] concerns SK-MEL-5 melanoma.
Test [9] relates to SK-OV-3 ovarian.
In test [10] the test system is SR leukemia.

For the compound `CNCc1cccc2c1OCCOCCOCCN(C)S(=O)(=O)c1ccc(cc1)-c1cnc(N)c(n1)C(=O)N2`, the GI50 in test [1] is 0.446 µM; in [2] it was 0.98 µM; in [3], 1.77 µM; in [4], 14.3 µM; in test [5], 3.39 µM; in test [6], 4.39 µM. Moreover, the GI50 in test [7] was 0.534 µM; in test [8], 1.35 µM; in test [9], 0.389 µM; in [10], 0.248 µM. Further, the TGI in test [1] worked out at 1.99 µM; in test [2], 17.9 µM; in test [3], 4.04 µM; in [4] it was 32.6 µM; in test [5] it was 8.57 µM; in test [6], 31 µM. The TGI is 1.98 µM in test [7], 2.91 µM in test [8], 12.8 µM in test [9] and 2.97 µM in test [10].

`CN(C)CCCC1(c2ccc(F)cc2)OCc2cc(-c3cccc4[nH]ccc34)ccc21` (centres undefined): the GI50 in [1] was 1.63 µM; in [2] it was 1.41 µM; in test [3], 1.5 µM; in test [4] it was 1.72 µM; in test [5], 1.71 µM; in test [6] it was 1.77 µM. Also, the GI50 in test [7] is 1.67 µM; in test [8], 1.75 µM; in [9], 1.75 µM; in test [10], 0.973 µM. Moreover, the TGI in test [1] came out at 3.24 µM; in [2], 2.77 µM; in test [3], 2.89 µM; in [4], 3.38 µM; in test [5], 3.27 µM; in test [6], 4.12 µM. The TGI came to 3.12 µM in test [7], 3.17 µM in test [8], 3.25 µM in test [9] and 2.97 µM in test [10].

As to `Nc1ncc(Cc2ccc3c(c2)OCO3)c(N)n1`, the TGI in test [1], in [2], in test [3], in [4], in test [5] and in test [6] was > 100 µM throughout. Further, the TGI in test [7], in test [8], in test [9] and in test [10] was > 100 µM throughout.

For `CC1(C)OC[C@@H]([C@@]2(CO[Si](c3ccccc3)(c3ccccc3)C(C)(C)C)CC=CC(=O)O2)O1`, the GI50 in [1] was 8.96 µM; in test [2], 25.9 µM; in test [3] it was 31.5 µM; in test [4] it was 5.64 µM; in test [5], 16.7 µM; in [6] it was 3.55 µM. Further, the GI50 is 3.68 µM in [7], 4.65 µM in test [8], 33 µM in test [9] and 4.1 µM in [10]. Besides, the TGI in test [1] is 32.8 µM; in test [2] it was > 100 µM; in [3], 60.9 µM; in test [4], 35.1 µM; in test [5], 49.6 µM; in test [6], 71.9 µM. The TGI in test [7] is 9.82 µM; in [8], 19.4 µM; in [9] it was > 100 µM; in test [10], 16.6 µM.

In the case of `N#CC1(c2ccc(NC(=O)c3cccnc3NCc3ccncc3)cc2)CCCC1`, the GI50 in test [1] was 14.5 µM; in [2] it was 16.8 µM; in test [3], 22.4 µM; in [4], 12.9 µM; in test [5] it was 22.5 µM; in test [6], 6.73 µM. The GI50 is 3.37 µM in [7], 4.96 µM in test [8], 21.7 µM in [9] and 13 µM in test [10]. The TGI in test [1] was 49.6 µM; in test [2], > 85.9 µM; in test [3], 84.9 µM; in test [4], 62.5 µM; in test [5], > 91.8 µM; in test [6], 31.4 µM. Besides, the TGI in test [7] was 29.9 µM; in test [8], 18 µM; in test [9], > 84.1 µM; in test [10] it was 39.5 µM.

Regarding `COc1ccc2c(N)ncc(C#Cc3cc(C(=O)Nc4ccc(CN5CCN(C)CC5)c(C(F)(F)F)c4)cnc3C)c2c1`, the GI50 in [1] was 0.673 µM; in test [2] it was 1.36 µM; in [3], 4.36 µM; in test [4] it was 1.69 µM; in [5], 1.33 µM; in [6] it was 0.775 µM. The GI50 in test [7] is 0.597 µM; in [8] it was 1.86 µM; in test [9], 1.7 µM; in [10], 0.649 µM. The TGI in [1] came out at 1.25 µM; in [2] it was 8.62 µM; in test [3] it was 33.2 µM; in [4] it was 7.42 µM; in test [5], 3.78 µM; in test [6], 2.25 µM. Besides, the TGI came out at 1.12 µM in [7], 5.32 µM in test [8], 15 µM in [9] and 1.97 µM in test [10].

Turning to `C[C@]12CC[C@H]3[C@@H](CCC4=CC(=O)CC[C@@]43C)[C@@H]1CC[C@@H]2c1csc(N)n1`, the GI50 in [1] was 10.7 µM; in test [2] it was 1.41 µM; in test [3] it was 6.56 µM; in [4] it was 2.54 µM; in [5], 15 µM; in [6] it was 1.21 µM. The GI50 in test [7] was 9.2 µM; in [8], 1.69 µM; in [9] it was 12.5 µM; in test [10], 2.12 µM. Also, the TGI in [1] was 33.4 µM; in test [2] it was 13.4 µM; in test [3], 23.7 µM; in test [4], 22.4 µM; in test [5], 38.7 µM; in test [6], 26.2 µM. The TGI in test [7] is 27 µM; in test [8], 5.41 µM; in test [9], 33.3 µM; in test [10], 12.6 µM.

With `COC1N(C2CC(O)C(CO)O2)C(=O)NC(=O)C1(F)Br` (centres undefined), the GI50 is 31.9 µM in [1]; 24.9 µM in test [2]; 8.35 µM in [3]; > 50 µM in test [5]; 34.1 µM in [6]; 6.8 µM in [7]. Also, the GI50 in test [8] is 38.2 µM; in test [9] it was 99.4 µM; in test [10], 25.1 µM. Further, the TGI is 50 µM and > 100 µM in test [1]; 50 µM and > 100 µM in [2]; 50 µM and > 66.5 µM in test [3]; > 100 µM in test [4]; > 100 µM in [5]; 50 µM and > 100 µM in test [6]. The TGI was 50 µM in test [7]; 50 µM and > 89.7 µM in [8]; > 100 µM in test [9]; 50 µM and > 100 µM in test [10].

For the origin of these results see PubChem BioAssay (NCI).
